Calls of active or inactive are those of the source. The calls are words filed in the database; no cut-off is given here.
Experiments:
Format in all cases: functional, cell-based
HCT-116 = assay: Cytotoxicity against human HCT116 cells at 10 to 100 uM after 48 hrs by MTT assay
HT-29 [1] = assay: Cytotoxicity against human HT-29 cells at 10 to 100 uM after 48 hrs by MTT assay
MCF7 [2] = assay: Cytotoxicity against human MCF7 cells at 10 to 100 uM after 48 hrs by MTT assay
A549 [3] = assay: Cytotoxicity against human A549 cells at 10 to 100 uM after 48 hrs by MTT assay
HT-29 [4] = assay: Cytotoxicity against human HT-29 cells after 48 hrs by MTT assay
A549 [5] = assay: Cytotoxicity against human A549 cells after 48 hrs by MTT assay
MCF7 [6] = assay: Cytotoxicity against human MCF7 cells after 48 hrs by MTT assay

Row | SMILES | Activity (HCT-116) | Activity (HT-29 [1]) | Activity (MCF7 [2]) | Activity (A549 [3]) | Activity (HT-29 [4]) | Activity (A549 [5]) | Activity (MCF7 [6])
1 | COc1cc(C(=O)C(CO)c2ccc(O)c(OC)c2)ccc1O (centres undefined) | Active | Active | Active | Active | – | – | –
2 | COc1cc([C@@H]2Oc3c(OC)cc(/C=C/C=O)cc3[C@H]2CO)ccc1O | Active | Active | Active | Active | Dose-dependent effect | Dose-dependent effect | Dose-dependent effect
3 | COc1cc(O)cc(C=O)c1 | Active | Active | Active | Active | – | – | –
4 | COc1cc([C@H]2Oc3c(OC)cc(/C=C/C=O)cc3[C@@H]2CO)ccc1O | Active | Active | Active | Active | Dose-dependent effect | Dose-dependent effect | Dose-dependent effect
5 | OC[C@@H]1[C@@H](Cc2ccc(O)cc2)CO[C@H]1c1ccc(O)cc1 | inactive | Active | Active | Active | Dose-dependent effect | Dose-dependent effect | Dose-dependent effect
6 | O=C/C=C\c1ccc(O)cc1 | Active | Active | Active | Active | – | – | –
7 | O=Cc1ccc(O)cc1 | Active | Active | Active | Active | – | – | –
8 | COc1cc(/C=C\C=O)ccc1O | Active | Active | Active | Active | Dose-dependent effect | Dose-dependent effect | Dose-dependent effect

Reference: ChEMBL document CHEMBL1955786, “New antitumor compounds from Carya cathayensis” (Bioorg Med Chem Lett, 2012)
